Data published in ChEMBL document CHEMBL1201862, “PubChem BioAssay data set” (2004).
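Five concentrations, 48 hours, 96-well plates. GI50 marks 50% less growth.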 The source made the active and inactive calls. Rule as the data show it: active = GI50 up to about 1.1 µM and inactive = higher.

Key:
Experiment in all cases: NCI tumour cell line growth inhibition, 48 h
[1] = system: UACC-62
[2] = system: Malme-3M
[3] = system: HCT-116
[4] = system: HT-29
[5] = system: 786-0
[6] = system: SK-MEL-2
[7] = system: MOLT-4
[8] = system: M14
[9] = system: SK-OV-3
[10] = system: RXF 393
[11] = system: SK-MEL-5
[12] = system: NCI-H23
[13] = system: A498
[14] = system: SNB-19
[15] = system: NCI/ADR-RES
[16] = system: OVCAR-8
[17] = system: K562
[18] = system: PC-3
[19] = system: KM12
[20] = system: DU-145
[21] = system: OVCAR-4
[22] = system: NCI-H226
[23] = system: Hs-578T
[24] = system: LOX IMVI
[25] = system: IGROV-1
[26] = system: UACC-257
[27] = system: OVCAR-3
[28] = system: A549
[29] = system: MDA-N
[30] = system: CAKI-1
[31] = system: UO-31
[32] = system: CCRF-CEM
[33] = system: SK-MEL-28
[34] = system: SF-268
[35] = system: HCC 2998
[36] = system: SF-295
[37] = system: ACHN
[38] = system: SF-539
[39] = system: HOP-92
[40] = system: COLO 205
[41] = system: RPMI-8226
[42] = system: TK-10
[43] = system: HCT-15
[44] = system: OVCAR-5
[45] = system: BT-549
[46] = system: SNB-75
[47] = system: MCF7
[48] = system: MDA-MB-231
[49] = system: T47D
[50] = system: HL-60
[51] = system: NCI-H522
[52] = system: HOP-62
[53] = system: MDA-MB-435
[54] = system: EKVX
[55] = system: U-251
[56] = system: NCI-H460
[57] = system: SN12C
[58] = system: SW-620

## O/N=C(\CC(O)(C(F)(F)F)C(F)(F)F)c1cccs1
[1]
  GI50: > 10 µM (inactive)
[2]
  GI50: > 10 µM (inactive)
[3]
  GI50: > 10 µM (inactive)
[4]
  GI50: > 10 µM (inactive)
[5]
  GI50: > 10 µM (inactive)
[6]
  GI50: > 10 µM (inactive)
[7]
  GI50: > 10 µM (inactive)
[8]
  GI50: > 10 µM (inactive)
[9]
  GI50: > 10 µM (inactive)
[10]
  GI50: > 10 µM (inactive)
[11]
  GI50: > 10 µM (inactive)
[12]
  GI50: > 10 µM (inactive)
[13]
  GI50: > 10 µM (inactive)
[14]
  GI50: > 10 µM (inactive)
[15]
  GI50: > 10 µM (inactive)
[16]
  GI50: > 10 µM (inactive)
[17]
  GI50: > 10 µM (inactive)
[18]
  GI50: > 10 µM (inactive)
[19]
  GI50: > 10 µM (inactive)
[20]
  GI50: > 10 µM (inactive)
[21]
  GI50: > 10 µM (inactive)
[22]
  GI50: > 10 µM (inactive)
[23]
  GI50: > 10 µM (inactive)
[24]
  GI50: > 10 µM (inactive)
[25]
  GI50: > 10 µM (inactive)
[26]
  GI50: > 10 µM (inactive)
[27]
  GI50: > 10 µM (inactive)
[28]
  GI50: > 10 µM (inactive)
[29]
  GI50: > 10 µM (inactive)
[30]
  GI50: > 10 µM (inactive)
[31]
  GI50: > 10 µM (inactive)
[32]
  GI50: > 10 µM (inactive)
[33]
  GI50: > 10 µM (inactive)
[34]
  GI50: > 10 µM (inactive)
[35]
  GI50: > 10 µM (inactive)
[36]
  GI50: > 10 µM (inactive)
[37]
  GI50: > 10 µM (inactive)
[38]
  GI50: > 10 µM (inactive)
[39]
  GI50: > 10 µM (inactive)
[40]
  GI50: > 10 µM (inactive)
[41]
  GI50: > 10 µM (inactive)
[42]
  GI50: > 10 µM (inactive)
[43]
  GI50: > 10 µM
[44]
  GI50: > 10 µM (inactive)
[45]
  GI50: > 10 µM (inactive)
[46]
  GI50: 7.46 µM (inactive)
[47]
  GI50: > 10 µM (inactive)
[48]
  GI50: > 10 µM (inactive)
[49]
  GI50: > 10 µM (inactive)
[50]
  GI50: > 10 µM (inactive)
[51]
  GI50: > 10 µM (inactive)
[52]
  GI50: > 10 µM (inactive)
[53]
  GI50: > 10 µM (inactive)
[54]
  GI50: > 10 µM (inactive)
[55]
  GI50: > 10 µM (inactive)
[56]
  GI50: > 10 µM (inactive)
[57]
  GI50: > 10 µM (inactive)
[58]
  GI50: > 10 µM (inactive)

## CC1OC(OC2C(O[C@H]3CC[C@@]4(C)[C@@H](CC[C@@H]5[C@@H]4CC[C@]4(C)[C@@H]6[C@H](C[C@@H]54)O[C@]4(CC[C@@H](C)CO4)[C@H]6C)C3)OC(CO)C(OC3OC(CO)C(O)C(OC4OCC(O)C(O)C4O)C3OC3OCC(O)C(O)C3O)C2O)C(O)C(O)C1O (stereo partly drawn)
[1]
  GI50: 0.746 µM (active)
[2]
  GI50: 1.26 µM (inactive)
[3]
  GI50: 0.321 µM (active)
[4]
  GI50: 0.495 µM (active)
[5]
  GI50: 1.64 µM (inactive)
[6]
  GI50: 1.02 µM (active)
[7]
  GI50: 1.04 µM (active)
[8]
  GI50: 0.434 µM (active)
[9]
  GI50: 1.9 µM (inactive)
[10]
  GI50: 0.54 µM (active)
[11]
  GI50: 1.12 µM (inactive)
[12]
  GI50: 1.52 µM (inactive)
[13]
  GI50: 1.68 µM (inactive)
[14]
  GI50: 0.995 µM (active)
[15]
  GI50: 1.58 µM (inactive)
[16]
  GI50: 1.49 µM (inactive)
[18]
  GI50: 0.64 µM (active)
[19]
  GI50: 0.518 µM (active)
[20]
  GI50: 1.32 µM (inactive)
[21]
  GI50: 1.47 µM (inactive)
[22]
  GI50: 1.87 µM (inactive)
[23]
  GI50: 1.03 µM (active)
[24]
  GI50: 0.514 µM (active)
[25]
  GI50: 1.01 µM (active)
[26]
  GI50: 1.3 µM (inactive)
[27]
  GI50: 1.74 µM (inactive)
[28]
  GI50: 0.336 µM (active)
[29]
  GI50: 3.73 µM (inactive)
[30]
  GI50: 0.706 µM (active)
[31]
  GI50: 1.04 µM (active)
[32]
  GI50: 0.224 µM (active)
[33]
  GI50: 0.745 µM (active)
[34]
  GI50: 1.69 µM (inactive)
[35]
  GI50: 1.63 µM (inactive)
[36]
  GI50: 0.904 µM (active)
[37]
  GI50: 0.942 µM (active)
[38]
  GI50: 0.303 µM (active)
[39]
  GI50: 1.67 µM (inactive)
[40]
  GI50: 0.351 µM (active)
[41]
  GI50: 0.593 µM (active)
[42]
  GI50: 1.66 µM (inactive)
[43]
  GI50: 1.21 µM
[44]
  GI50: 1.16 µM (inactive)
[45]
  GI50: 1.08 µM (active)
[46]
  GI50: 1.45 µM (inactive)
[47]
  GI50: 0.342 µM (active)
[48]
  GI50: 2.03 µM (inactive)
[49]
  GI50: 1.8 µM (inactive)
[50]
  GI50: 0.282 µM (active)
[51]
  GI50: 0.676 µM (active)
[52]
  GI50: 0.783 µM (active)
[53]
  GI50: 1.42 µM (inactive)
[54]
  GI50: 1.51 µM (inactive)
[55]
  GI50: 0.514 µM (active)
[56]
  GI50: 0.625 µM (active)
[58]
  GI50: 0.251 µM (active)

## c1cc(-c2ncc(-c3ccc4c(c3)CCCO4)o2)ccn1
[1]
  GI50: 15.6 µM (inactive)
[2]
  GI50: 10.4 µM (inactive)
[3]
  GI50: 10.7 µM (inactive)
[4]
  GI50: 7.4 µM (inactive)
[5]
  GI50: 26.6 µM (inactive)
[6]
  GI50: 10.8 µM (inactive)
[7]
  GI50: 3.06 µM (inactive)
[8]
  GI50: 21.6 µM (inactive)
[9]
  GI50: 15.6 µM (inactive)
[10]
  GI50: 8.83 µM (inactive)
[11]
  GI50: 9.2 µM (inactive)
[12]
  GI50: 14.7 µM (inactive)
[13]
  GI50: 10.6 µM (inactive)
[14]
  GI50: 8.79 µM (inactive)
[15]
  GI50: 3.94 µM (inactive)
[16]
  GI50: 16.7 µM (inactive)
[17]
  GI50: 1.85 µM (inactive)
[18]
  GI50: 11.5 µM (inactive)
[20]
  GI50: 12 µM (inactive)
[21]
  GI50: 18 µM (inactive)
[22]
  GI50: 21 µM (inactive)
[23]
  GI50: 17.4 µM (inactive)
[24]
  GI50: 8.41 µM (inactive)
[25]
  GI50: 15.6 µM (inactive)
[26]
  GI50: 13.2 µM (inactive)
[27]
  GI50: 11.4 µM (inactive)
[28]
  GI50: 7.41 µM (inactive)
[29]
  GI50: 2.48 µM (inactive)
[30]
  GI50: 20 µM (inactive)
[31]
  GI50: 23.2 µM (inactive)
[32]
  GI50: 4.83 µM (inactive)
[33]
  GI50: 11.6 µM (inactive)
[34]
  GI50: 19.3 µM (inactive)
[36]
  GI50: 16.6 µM (inactive)
[37]
  GI50: 22.3 µM (inactive)
[38]
  GI50: 9.38 µM (inactive)
[39]
  GI50: 21.6 µM (inactive)
[40]
  GI50: 5.42 µM (inactive)
[41]
  GI50: 8.47 µM (inactive)
[42]
  GI50: 7.43 µM (inactive)
[43]
  GI50: 6.24 µM
[44]
  GI50: 42.2 µM (inactive)
[45]
  GI50: 13.2 µM (inactive)
[46]
  GI50: 2.08 µM (inactive)
[47]
  GI50: 12.8 µM (inactive)
[48]
  GI50: 17.7 µM (inactive)
[49]
  GI50: 12.5 µM (inactive)
[50]
  GI50: 2.42 µM (inactive)
[51]
  GI50: 3.78 µM (inactive)
[52]
  GI50: 18.1 µM (inactive)
[53]
  GI50: 2.36 µM (inactive)
[54]
  GI50: 18.6 µM (inactive)
[55]
  GI50: 11.2 µM (inactive)
[57]
  GI50: 25.8 µM (inactive)
